Experimental data from patent US4501747A, “Certain amide derivatives of 2-guanidino-thiazoles and compositions containing same” (Sanofi, priority 1982, dated 1985).
Structures can show the parent of a compound that is named as a salt. Where two headings read alike, the source gives them in different places.

What was measured:
[1] = target: T1, histamine H2 receptors (Rattus norvegicus, UniProt P25102); assay: antisecretory activity: antagonism of the gastric acid hypersecretion induced by histamine in the atropinized rat (Ghosh and Schild, modified according to Black et al.); type: in vivo; details: for ED50: read-out: DI50 (ID50: dose which inhibits by 50% the gastric hypersecretion induced by histamine)
T1 construct: from tissue; host or cells: stomach of the atropinized rat, in vivo (endogenous receptor)
Procedure: According to this test, a gastric acid hypersecretion is induced by intravenous infusion of a sub-maximal dose of histamine equivalent to 15 mcmol/kg/hour and the gastric secretion is measured by perfusion of a physiological solution at a constant speed in the stomach of the animal.
Such a ID50 represents the index of the gastric H2 -blocking action.

[2] = acute toxicity by intraperitoneal route in the mouse; type: in vivo; details: in vivo, ip
Description: (§1) With respect of their degree of activity, the compounds of the present invention are poorly toxic.

[3] = system: mouse; assay: as above; type: in vivo; details: 375 mg/kg
Description: as §1

[4] = system: rat stomach; details: i.v., as maleate; cited from earlier work
[5] = atropinized rat, intravenous route, single administration, histamine i.v. infusion 15 mcmol/kg/hour

T1 sequence (P25102 whole entry): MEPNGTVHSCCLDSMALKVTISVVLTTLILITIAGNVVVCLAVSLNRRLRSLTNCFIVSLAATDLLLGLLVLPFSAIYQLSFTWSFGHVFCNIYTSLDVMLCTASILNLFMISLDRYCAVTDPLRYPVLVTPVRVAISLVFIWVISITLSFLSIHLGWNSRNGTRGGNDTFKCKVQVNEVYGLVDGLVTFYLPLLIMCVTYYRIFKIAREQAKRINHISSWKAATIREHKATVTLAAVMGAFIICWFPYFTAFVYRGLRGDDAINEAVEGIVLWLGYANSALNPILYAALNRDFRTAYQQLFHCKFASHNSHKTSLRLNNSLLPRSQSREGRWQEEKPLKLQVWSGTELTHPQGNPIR

Row | Compound | Relative potency (cimetidine = 1) ([1]; atropinized rat, i.v.) | ED50 [1, 5] | also measured
1 | CS(=O)(=O)Nc1cccc(C(=O)NCCSCc2csc(NC(=N)N)n2)c1.Cl [SR 57938 A, 3-methanesulfonamido-N-[2-(2-guanidinothiazol-4-ylmethylthio)ethyl]benzamide hydrochloride] | 6.33 |  | activity compared with reference compounds ([1]; comparison in words, from Table I, atropinized rat, i.v.): ten times more active than "Compound A"; ED50 ([1]; rat, iv): 0.15 µmol/kg
2 | N=C(N)Nc1nc(CSCCNC(=O)c2cccnc2)cs1 [Compound B, N-[2-(2-guanidinothiazol-4-ylmethylthio)ethyl]nicotinamide, reference compound] | 7.39 | 0.28 µmol/kg | LD50 [2]: 342 µmol/kg
3 | CNC(=C[N+](=O)[O-])NCCSCc1ccc(CN(C)C)o1 [Ranitidine, N-[2-[[5-[(dimethylamino)methyl]furfuryl]thio]ethyl]-N'-methyl-2-nitro-1,1-ethenediamine, reference compound] | 3.80 |  | 
4 | N=C(N)Nc1nc(CSCCNC(=O)c2cccc(NS(=O)(=O)c3ccccc3)c2)cs1 [SR 57963 A, neutral fumarate of 3-benzenesulfonamido-N-[2-(2-guanidinothiazol-4-ylmethylthio)ethyl]benzamide] | 14.6 | 0.065 µmol/kg | 
5 | N=C(N)Nc1nc(CSCCNC(=O)c2ccc[n+]([O-])c2)cs1 [SR 57957 A, neutral fumarate of N-[2-(2-guanidinothiazol-4-ylmethylthio)ethyl]-3-pyridine carboxamide 1-oxide] | 9.5 | 0.1 µmol/kg | mortality [3]: does not cause any mortality; LD50 [2]: > 900 µmol/kg
6 | N=C(N)Nc1nc(CSCCNC=O)cs1 [2-guanidino-4-[(2-formamido)ethylthiomethyl]thiazol] |  |  | ED50 [4]: 0.25 mg/kg
7 | CS(=O)(=O)Nc1ccc(C(=O)NCCSCc2csc(NC(=N)N)n2)cc1 [Compound A, 4-methanesulfonamido-N-[2-(2-guanidinothiazol-4-ylmethylthio)ethyl]benzamide, reference compound] | 0.57 | 1.66 µmol/kg | 
